Test results from US20120190666A1, “Heteroaryl Compounds as PIKK Inhibitors” (Amgen Inc., priority 2009, published 2012).

Key:
[1] = target: mTOR (Homo sapiens, UniProt P42345); assay: mTOR LanthaScreen (TR-FRET, phosphorylation of 4EBP1); format: biochemical; settings: phosphorylation of GFP-4E-BP1, 10 μM ATP, 90 minutes
Method in brief: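 Final reaction: 400 nM GFP-4E-BP1, 10 μM ATP, 0.15 μg/ml mTOR, compound 50 μM down to 23.84 pM (22-point 1:2 series) in 1% DMSO, buffer with 2 mM DTT; 90 min incubation.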

[2] = test system: phosphorylation of Akt at Serine 473 in U87 MG cells; assay: pAkt AlphaScreen (U87 cell); format: cell-based; settings: pAkt at Serine 473, U87 MG cells, two hours with compound
Method in brief: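 U87 MG cells (5K per well, plated overnight) treated 2 h at 37 °C with compound, 25 μM to 11.9 pM final in 0.5% DMSO. Lysates assayed for Akt Ser473 phosphorylation with SureFire AlphaScreen, incubated overnight at room temperature; IC50 from percent of control.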

| Structure (SMILES) | IC50 [1] | IC50 ([2]; Homo sapiens, U-87 MG, 2 h) | IC50 [2] |
| --- | --- | --- | --- |
| Cc1nc(N)nc(-c2c(Nc3ccn(C(=O)Nc4ccccc4)n3)nc3ccccn23)n1 [Cpd 204, 3-((3-(4-amino-6-methyl-1,3,5-triazin-2-yl)imidazo[1,2-a]pyridin-2-yl)amino)-N-phenyl-1H-pyrazole-1-carboxamide] | 90 nM | 90 nM | – |
| Cc1nc(N)nc(-c2c(Nc3cnn(C(=O)Oc4ccccc4)c3)nc3ccccn23)n1 [Cpd 209, phenyl 4-((3-(4-amino-6-methyl-1,3,5-triazin-2-yl)imidazo[1,2-a]pyridin-2-yl)amino)-1H-pyrazole-1-carboxylate] | 300 nM | 110 nM | – |
| Cc1nc(N)cc(-c2c(Nc3ccn(-c4ccccn4)n3)nc3ccccn23)n1 [Cpd 216, 3-(6-amino-2-methyl-4-pyrimidinyl)-N-(1-(2-pyridinyl)-1H-pyrazol-3-yl)imidazo[1,2-a]pyridin-2-amine] | 860 nM | 450 nM | – |
| Cc1nc(N)cc(-c2c(Nc3ccn(C(=O)NCc4ccccc4)n3)nc3ccccn23)n1 [Cpd 222, 3-((3-(6-amino-2-methyl-4-pyrimidinyl)imidazo[1,2-a]pyridin-2-yl)amino)-N-benzyl-1H-pyrazole-1-carboxamide] | 5880 nM | 1810 nM | – |
| Cc1nc(N)cc(-c2c(Nc3ccn(C(=O)Nc4ccccc4C(F)(F)F)n3)nc3cccnn23)n1 [Cpd 239, 3-((3-(6-amino-2-methyl-4-pyrimidinyl)imidazo[1,2-b]pyridazin-2-yl)amino)-N-(2-(trifluoromethyl)phenyl)-1H-pyrazole-1-carboxamide] | 8 nM | 10 nM | – |
| Cc1nc(N)cc(-c2c(Nc3ccn(C(=O)Nc4cc(F)cc(F)c4)n3)nc3cccnn23)n1 [Cpd 242, 3-((3-(6-amino-2-methyl-4-pyrimidinyl)imidazo[1,2-b]pyridazin-2-yl)amino)-N-(3,5-difluorophenyl)-1H-pyrazole-1-carboxamide] | 80 nM | 80 nM | – |
| Cc1nc(N)cc(-c2c(Nc3ccnn3C(=O)N3CCC3)nc3cccnn23)n1 [Cpd 257, 3-(6-amino-2-methyl-4-pyrimidinyl)-N-(1-(1-azetidinylcarbonyl)-1H-pyrazol-5-yl)imidazo[1,2-b]pyridazin-2-amine] | 1690 nM | 1050 nM | – |
| COc1ccc(-c2ccc3nc(Nc4ccn[nH]4)c(-c4nc(C)nc(N)n4)n3c2)cc1CO [Cpd 286] | 120 nM | 10 nM | – |
| Cc1nc(N)nc(-c2c(Nc3ccn[nH]3)nc3ccc(CCC(O)CO)cn23)n1 (stereo not drawn) [Cpd 291, 4-(3-(4-amino-6-methyl-1,3,5-triazin-2-yl)-2-(1H-pyrazol-5-ylamino)-midazo[1,2-a]pyridin-6-yl)-1,2-butanediol] | 1210 nM | – | 170 nM |
| Cc1nc(N)nc(-c2c(Nc3cc[nH]n3)nc3ccc(-c4ccc(S(C)(=O)=O)cc4)cn23)n1 [Cpd 344, 3-(4-amino-6-methyl-1,3,5-triazin-2-yl)-6-(4-(methylsulfonyl)phenyl)-N-1H-pyrazol-3-ylimidazo[1,2-a]pyridin-2-amine] | 80 nM | 20 nM | – |
| CNS(=O)(=O)c1ccc(-c2ccc3nc(Nc4cc[nH]n4)c(-c4nc(C)nc(N)n4)n3c2)cc1 [Cpd 351, 4-(3-(4-amino-6-methyl-1,3,5-triazin-2-yl)-2-(1H-pyrazol-3-ylamino)imidazo[1,2-a]pyridin-6-yl)-N-methylbenzenesulfonamide] | 230 nM | 30 nM | – |
| Cc1nc(N)nc(-c2c(Nc3ccn(C)n3)nc3ccc(-c4ccc(S(C)(=O)=O)cc4)cn23)n1 [Cpd 354] | 320 nM | 100 nM | – |
